Data: ChEMBL document CHEMBL2069252, “Pyrazole diaminopyrimidines as dual inhibitors of KDR and Aurora B kinases” (Bioorg Med Chem Lett, 2012)
In brackets after ≈: the same amount, converted by molar mass. Activity calls are given as the source filed them. No cut-off for these calls is given here.

target: Aurora kinase B (Homo sapiens, UniProt Q96GD4); assay: Inhibition of Aurora B kinase by HTRF analysis in presence of 1 mM ATP; details: not given
Sequence (Q96GD4 whole entry): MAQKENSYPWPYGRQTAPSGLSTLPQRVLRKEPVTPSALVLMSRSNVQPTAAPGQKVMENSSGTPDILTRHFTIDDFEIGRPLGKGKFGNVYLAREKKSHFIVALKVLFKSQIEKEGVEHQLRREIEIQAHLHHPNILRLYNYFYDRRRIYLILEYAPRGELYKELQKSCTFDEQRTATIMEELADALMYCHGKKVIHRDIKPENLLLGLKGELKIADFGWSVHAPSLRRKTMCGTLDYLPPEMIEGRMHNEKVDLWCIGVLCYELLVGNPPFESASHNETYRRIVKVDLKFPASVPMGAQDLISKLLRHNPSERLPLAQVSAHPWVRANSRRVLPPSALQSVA

SMILES	IC50 [µM]
Cn1cc(Nc2ncc(Cl)c(N[C@@H]3CCC[C@@H]3C(N)=O)n2)cn1	0.032
NC(=O)[C@@H]1[C@H](Nc2nc(Nc3cnn(Cc4ccccc4)c3)ncc2Cl)[C@H]2C=C[C@@H]1C2	0.012
CCn1cc(Nc2ncc(Cl)c(N[C@H]3[C@@H](C(N)=O)[C@@H]4C=C[C@H]3C4)n2)cn1	0.008
Cn1cc(Nc2ncc(Cl)c(N[C@H]3[C@H]4CC[C@H](C4)[C@H]3C(N)=O)n2)cn1	0.031
Cn1cc(Nc2ncc(C(F)(F)F)c(N[C@@H]3[C@H]4CC[C@H](C4)[C@@H]3C(N)=O)n2)cn1	0.066
Cn1cc(Nc2ncc(Cl)c(N[C@@H]3[C@H]4CC[C@H](C4)[C@@H]3C(N)=O)n2)cn1	0.008
Cn1cc(Nc2ncc(Cl)c(N[C@H]3[C@@H](C(N)=O)[C@@H]4CC[C@H]3O4)n2)cn1	0.118
Cn1cc(Nc2nccc(N[C@H]3[C@@H](C(N)=O)[C@@H]4C=C[C@H]3C4)n2)cn1	0.294
Cn1cc(Nc2ncc(C(N)=O)c(N[C@H]3[C@@H](C(N)=O)[C@@H]4C=C[C@H]3C4)n2)cn1	0.197
Cc1cnc(Nc2cnn(C)c2)nc1N[C@H]1[C@@H](C(N)=O)[C@@H]2C=C[C@H]1C2	0.252
Cn1cc(Nc2ncc(Cl)c(N[C@H]3[C@@H](C(N)=O)[C@@H]4C=C[C@H]3C4)n2)cn1	0.029
NC(=O)[C@@H]1[C@H](Nc2nc(Nc3cnn(CCN4CCOCC4)c3)ncc2Cl)[C@H]2C=C[C@@H]1C2	0.027
Cn1cc(Nc2ncc(C(F)(F)F)c(N[C@H]3[C@@H](C(=O)NC4CC4)[C@@H]4C=C[C@H]3C4)n2)cn1	0.051
Cn1cc(Nc2ncc(C(F)(F)F)c(N[C@H]3[C@@H](C(N)=O)[C@@H]4C=C[C@H]3C4)n2)cn1	0.028
Cn1cc(Nc2ncc(C(F)(F)F)c(N[C@H]3C[C@@H]4CC[C@H]3C4)n2)cn1	0.061
Cn1cc(Nc2ncc(Cl)c(N[C@@H]3CC[C@@H]3C(N)=O)n2)cn1	0.044

test system: DOHH-2; details: Homo sapiens
Description: Antitumor activity against human DOHH2 cells xenografted in mouse tumor model assessed as tumor growth inhibition at 10 mg/kg, ip administered Q7d for 3 weeks

SMILES	TGI
Cn1cc(Nc2ncc(Cl)c(N[C@H]3[C@@H](C(N)=O)[C@@H]4C=C[C@H]3C4)n2)cn1	Active

test system: not listed separately; assay: AUC in CD1(ICR) mouse at 10 mg/kg, ip; format: ADME, organism-based; set-up: dose 10 mg/kg, route intraperitoneal; details: plasma

SMILES	AUC [µM·h]
CCn1cc(Nc2ncc(Cl)c(N[C@H]3[C@@H](C(N)=O)[C@@H]4C=C[C@H]3C4)n2)cn1	2.54
Cn1cc(Nc2ncc(Cl)c(N[C@H]3[C@@H](C(N)=O)[C@@H]4C=C[C@H]3C4)n2)cn1	11.1

test system: Mus musculus; assay: Toxicity in mouse xenografted with human DOHH2 cells assessed as weight loss at 10 mg/kg, ip administered Q7d for 3 weeks; details: in vivo, 504 h

SMILES	Activity
Cn1cc(Nc2ncc(Cl)c(N[C@H]3[C@@H](C(N)=O)[C@@H]4C=C[C@H]3C4)n2)cn1	Toxic

target: T1, Vascular endothelial growth factor receptor 2 (Homo sapiens, UniProt P35968); assay: Inhibition of human KDR autophosphorylation expressed in mouse NIH/3T3 cells; format: cell-based, NIH3T3; details: not given
T1 sequence (P35968 whole entry): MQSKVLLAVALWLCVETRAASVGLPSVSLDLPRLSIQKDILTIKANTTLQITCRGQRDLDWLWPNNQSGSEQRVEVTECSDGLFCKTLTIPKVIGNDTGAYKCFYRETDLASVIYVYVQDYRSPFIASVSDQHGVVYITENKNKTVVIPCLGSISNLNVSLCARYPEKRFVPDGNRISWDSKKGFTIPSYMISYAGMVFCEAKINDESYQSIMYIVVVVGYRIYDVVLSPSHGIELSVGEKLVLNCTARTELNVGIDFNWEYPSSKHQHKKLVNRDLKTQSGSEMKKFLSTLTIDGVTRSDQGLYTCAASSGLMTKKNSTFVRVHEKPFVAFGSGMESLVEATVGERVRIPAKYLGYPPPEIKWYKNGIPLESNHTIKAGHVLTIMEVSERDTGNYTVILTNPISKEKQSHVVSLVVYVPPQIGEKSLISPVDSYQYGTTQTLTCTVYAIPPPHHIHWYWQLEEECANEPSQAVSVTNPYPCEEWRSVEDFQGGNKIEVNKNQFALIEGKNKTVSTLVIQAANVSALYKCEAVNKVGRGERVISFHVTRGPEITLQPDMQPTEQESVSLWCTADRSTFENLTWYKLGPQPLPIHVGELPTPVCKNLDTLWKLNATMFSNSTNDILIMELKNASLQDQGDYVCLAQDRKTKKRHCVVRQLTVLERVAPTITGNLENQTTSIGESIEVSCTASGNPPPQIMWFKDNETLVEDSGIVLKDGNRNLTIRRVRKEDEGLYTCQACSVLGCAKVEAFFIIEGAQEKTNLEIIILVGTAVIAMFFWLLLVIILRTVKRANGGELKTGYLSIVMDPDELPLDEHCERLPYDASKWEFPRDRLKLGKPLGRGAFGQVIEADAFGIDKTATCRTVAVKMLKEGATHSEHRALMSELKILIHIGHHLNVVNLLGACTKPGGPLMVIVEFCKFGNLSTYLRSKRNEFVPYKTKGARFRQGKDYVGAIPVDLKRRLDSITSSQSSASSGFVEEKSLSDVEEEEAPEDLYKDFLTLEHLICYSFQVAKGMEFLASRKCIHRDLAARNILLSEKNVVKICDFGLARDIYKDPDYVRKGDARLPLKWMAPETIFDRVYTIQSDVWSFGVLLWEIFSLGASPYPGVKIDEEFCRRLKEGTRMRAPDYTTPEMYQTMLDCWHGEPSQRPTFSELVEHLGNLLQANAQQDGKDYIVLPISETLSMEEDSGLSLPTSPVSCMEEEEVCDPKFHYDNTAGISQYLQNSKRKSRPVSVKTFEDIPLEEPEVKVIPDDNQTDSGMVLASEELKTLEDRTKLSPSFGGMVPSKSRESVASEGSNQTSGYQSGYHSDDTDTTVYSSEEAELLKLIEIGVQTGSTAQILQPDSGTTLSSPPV

SMILES	IC50 [µM]
NC(=O)[C@@H]1[C@H](Nc2nc(Nc3cnn(Cc4ccccc4)c3)ncc2Cl)[C@H]2C=C[C@@H]1C2	0.042
CCn1cc(Nc2ncc(Cl)c(N[C@H]3[C@@H](C(N)=O)[C@@H]4C=C[C@H]3C4)n2)cn1	0.008
Cn1cc(Nc2ncc(Cl)c(N[C@H]3[C@H]4CC[C@H](C4)[C@H]3C(N)=O)n2)cn1	> 0.316
Cn1cc(Nc2ncc(C(F)(F)F)c(N[C@@H]3[C@H]4CC[C@H](C4)[C@@H]3C(N)=O)n2)cn1	0.061
Cn1cc(Nc2ncc(Cl)c(N[C@@H]3[C@H]4CC[C@H](C4)[C@@H]3C(N)=O)n2)cn1	0.084
Cn1cc(Nc2ncc(Cl)c(N[C@H]3[C@@H](C(N)=O)[C@@H]4C=C[C@H]3C4)n2)cn1	0.02
NC(=O)[C@@H]1[C@H](Nc2nc(Nc3cnn(CCN4CCOCC4)c3)ncc2Cl)[C@H]2C=C[C@@H]1C2	0.078
Cn1cc(Nc2ncc(C(F)(F)F)c(N[C@H]3[C@@H](C(N)=O)[C@@H]4C=C[C@H]3C4)n2)cn1	0.035

target: T1, Vascular endothelial growth factor receptor 2; assay: Inhibition of KDR by HTRF analysis in presence of 1 mM ATP; details: not given

SMILES	IC50 [µM]
Cn1cc(Nc2ncc(Cl)c(N[C@@H]3CCC[C@@H]3C(N)=O)n2)cn1	0.246
NC(=O)[C@@H]1[C@H](Nc2nc(Nc3cnn(Cc4ccccc4)c3)ncc2Cl)[C@H]2C=C[C@@H]1C2	0.007
CCn1cc(Nc2ncc(Cl)c(N[C@H]3[C@@H](C(N)=O)[C@@H]4C=C[C@H]3C4)n2)cn1	0.003
Cn1cc(Nc2ncc(Cl)c(N[C@H]3[C@H]4CC[C@H](C4)[C@H]3C(N)=O)n2)cn1	0.019
Cn1cc(Nc2ncc(C(F)(F)F)c(N[C@@H]3[C@H]4CC[C@H](C4)[C@@H]3C(N)=O)n2)cn1	0.074
Cn1cc(Nc2ncc(Cl)c(N[C@@H]3[C@H]4CC[C@H](C4)[C@@H]3C(N)=O)n2)cn1	0.019
Cn1cc(Nc2ncc(Cl)c(N[C@H]3[C@@H](C(N)=O)[C@@H]4CC[C@H]3O4)n2)cn1	0.693
Cn1cc(Nc2nccc(N[C@H]3[C@@H](C(N)=O)[C@@H]4C=C[C@H]3C4)n2)cn1	> 12
Cn1cc(Nc2ncc(C(N)=O)c(N[C@H]3[C@@H](C(N)=O)[C@@H]4C=C[C@H]3C4)n2)cn1	1.54
Cc1cnc(Nc2cnn(C)c2)nc1N[C@H]1[C@@H](C(N)=O)[C@@H]2C=C[C@H]1C2	0.467
Cn1cc(Nc2ncc(Cl)c(N[C@H]3[C@@H](C(N)=O)[C@@H]4C=C[C@H]3C4)n2)cn1	0.014
NC(=O)[C@@H]1[C@H](Nc2nc(Nc3cnn(CCN4CCOCC4)c3)ncc2Cl)[C@H]2C=C[C@@H]1C2	0.009
Cn1cc(Nc2ncc(C(F)(F)F)c(N[C@H]3[C@@H](C(=O)NC4CC4)[C@@H]4C=C[C@H]3C4)n2)cn1	0.292
Cn1cc(Nc2ncc(C(F)(F)F)c(N[C@H]3[C@@H](C(N)=O)[C@@H]4C=C[C@H]3C4)n2)cn1	0.012
Cn1cc(Nc2ncc(C(F)(F)F)c(N[C@H]3C[C@@H]4CC[C@H]3C4)n2)cn1	0.827
Cn1cc(Nc2ncc(Cl)c(N[C@@H]3CC[C@@H]3C(N)=O)n2)cn1	0.153

test system: not listed separately; assay: Metabolic stability of the compound in mouse liver microsomes assessed as compound remaining after 30 mins; format: ADME, Microsome; details: read-out: Stability

SMILES	remaining at 0.5 h [%]
NC(=O)[C@@H]1[C@H](Nc2nc(Nc3cnn(Cc4ccccc4)c3)ncc2Cl)[C@H]2C=C[C@@H]1C2	< 1
CCn1cc(Nc2ncc(Cl)c(N[C@H]3[C@@H](C(N)=O)[C@@H]4C=C[C@H]3C4)n2)cn1	13
Cn1cc(Nc2ncc(Cl)c(N[C@H]3[C@@H](C(N)=O)[C@@H]4C=C[C@H]3C4)n2)cn1	44
NC(=O)[C@@H]1[C@H](Nc2nc(Nc3cnn(CCN4CCOCC4)c3)ncc2Cl)[C@H]2C=C[C@@H]1C2	4

test system: NCI-H1299; assay: Cell cycle arrest in human NCI-H1299 cells assessed as induction of polyploidy after 48 hrs by Hoechst staining-based fluorescence microscopic analysis; format: functional; details: NCI-H1299, 48 h

SMILES	EC15 [µM]
Cn1cc(Nc2ncc(Cl)c(N[C@@H]3CCC[C@@H]3C(N)=O)n2)cn1	0.062
NC(=O)[C@@H]1[C@H](Nc2nc(Nc3cnn(Cc4ccccc4)c3)ncc2Cl)[C@H]2C=C[C@@H]1C2	< 0.001
CCn1cc(Nc2ncc(Cl)c(N[C@H]3[C@@H](C(N)=O)[C@@H]4C=C[C@H]3C4)n2)cn1	< 0.001
Cn1cc(Nc2ncc(Cl)c(N[C@H]3[C@H]4CC[C@H](C4)[C@H]3C(N)=O)n2)cn1	0.015
Cn1cc(Nc2ncc(C(F)(F)F)c(N[C@@H]3[C@H]4CC[C@H](C4)[C@@H]3C(N)=O)n2)cn1	0.01
Cn1cc(Nc2ncc(Cl)c(N[C@@H]3[C@H]4CC[C@H](C4)[C@@H]3C(N)=O)n2)cn1	0.001
Cn1cc(Nc2ncc(Cl)c(N[C@H]3[C@@H](C(N)=O)[C@@H]4CC[C@H]3O4)n2)cn1	0.132
Cn1cc(Nc2nccc(N[C@H]3[C@@H](C(N)=O)[C@@H]4C=C[C@H]3C4)n2)cn1	0.093
Cc1cnc(Nc2cnn(C)c2)nc1N[C@H]1[C@@H](C(N)=O)[C@@H]2C=C[C@H]1C2	0.011
Cn1cc(Nc2ncc(Cl)c(N[C@H]3[C@@H](C(N)=O)[C@@H]4C=C[C@H]3C4)n2)cn1	< 0.003
NC(=O)[C@@H]1[C@H](Nc2nc(Nc3cnn(CCN4CCOCC4)c3)ncc2Cl)[C@H]2C=C[C@@H]1C2	< 0.003
Cn1cc(Nc2ncc(C(F)(F)F)c(N[C@H]3[C@@H](C(=O)NC4CC4)[C@@H]4C=C[C@H]3C4)n2)cn1	< 0.001
Cn1cc(Nc2ncc(C(F)(F)F)c(N[C@H]3[C@@H](C(N)=O)[C@@H]4C=C[C@H]3C4)n2)cn1	0.003
Cn1cc(Nc2ncc(C(F)(F)F)c(N[C@H]3C[C@@H]4CC[C@H]3C4)n2)cn1	> 0.3
Cn1cc(Nc2ncc(Cl)c(N[C@@H]3CC[C@@H]3C(N)=O)n2)cn1	0.093

test system: Mus musculus; assay: Toxicity in mouse xenografted with human DOHH2 cells assessed as mortality at 10 mg/kg, ip administered Q7d for 3 weeks; details: in vivo, 504 h

SMILES	Activity
Cn1cc(Nc2ncc(Cl)c(N[C@H]3[C@@H](C(N)=O)[C@@H]4C=C[C@H]3C4)n2)cn1	Toxic

test system: not listed separately; assay: Aqueous solubility of the compound at pH 7.4 after 24 hrs by chemiluminescent nitrogen detection; format: physicochemical; details: not given

SMILES	solubility at 24 h [µM]
NC(=O)[C@@H]1[C@H](Nc2nc(Nc3cnn(Cc4ccccc4)c3)ncc2Cl)[C@H]2C=C[C@@H]1C2	4 (≈ 1.74 µg/mL)
CCn1cc(Nc2ncc(Cl)c(N[C@H]3[C@@H](C(N)=O)[C@@H]4C=C[C@H]3C4)n2)cn1	70 (≈ 26.2 µg/mL)
Cn1cc(Nc2ncc(Cl)c(N[C@H]3[C@@H](C(N)=O)[C@@H]4C=C[C@H]3C4)n2)cn1	78 (≈ 28.1 µg/mL)
NC(=O)[C@@H]1[C@H](Nc2nc(Nc3cnn(CCN4CCOCC4)c3)ncc2Cl)[C@H]2C=C[C@@H]1C2	85 (≈ 39 µg/mL)
